Starred links: 1 amine or outer side, 2 acyl side, 3 side chain; linkers in the order of their positions; H or OH if unused. Non-standard residues stand in square brackets, D forms with d. Residues, ends and D or L forms follow the SMILES beside them. Groups on a side chain read outwards from the residue. No end group written: not given here. *: point of attachment. C20 diacid = O=C(O)CCCCCCCCCCCCCCCCCCC(=O)*; Arachidoyl = CCCCCCCCCCCCCCCCCCCC(=O)*; γGlu = O=C(O)[C@H](CCC(=O)[*:2])N[*:1]; AEEA = NCCOCCOCC(=O)O; Aib = CC(C)(N)C(=O)O

Data set [1] can be described thus: Stability of compounds in human plasma (LC-MS). Format: in vitro ADME.
Procedure: 5 μL of each of samples at concentrations of 20 ng/ml, 50 ng/ml, 100 ng/ml, 200 ng/ml, 500 ng/mL, 1000 ng/mL, 2000 ng/mL, 5000 ng/mL, and 10000 ng/mL was added to 45 μL of human plasma. The content of the compounds in the samples was determined by the LC-MS method and a standard curve was formed. 5 μL of a 1 mg/mL polypeptide solution was added to 45 μL of human plasma. […] With the content at 0 min as the standard (100%), the relative content of the retained compounds in the samples at other time points was calculated.
Data set [2] can be described thus: Blood glucose in normal mice after single subcutaneous administration and intraperitoneal glucose. Format: in vivo, C57BL/6 mice. The settings on record: for Blood glucose: glucose i.p. 18 h later, mean ± SD. The protocol:
18 h later, a glucose solution at a concentration of 0.2 g/mL was intraperitoneally injected. Blood glucose values were measured by collecting blood from the tail of mice at time points of 0 min, 15 min, 30 min, 60 min, and 120 min according to the experimental design. The specific procedures were as follows: the mouse was physically immobilized with the tail exposed, a little part was cut off at the tail end, then the tail was squeezed to bleed, and blood glucose was determined using a Roche active glucometer after the 1st drop of blood was discarded. The area under the blood glucose curve (AUC) was calculated from the results of all time points.

Data set [3] can be described thus: Body weight of diet-induced-obesity mice after subcutaneous administration. The settings on record: induced-obesity mice, 10 nmol/kg. Format: in vivo, C57BL/6 mice. As for the experimental part:
High-fat food-induced-obesity male C57BL/6 mice (weighing 35-55 g, aged 10-12 weeks, purchased from Shanghai Jiesijie Laboratory Animal Co., Ltd.) were tested. […] According to the experimental design, the body weight of each mouse was measured and recorded on day 0, day 3, day 6, and so on to day 27, the average body weight of each group of mice was calculated, and body weight change curves were plotted by taking the body weight on the first day as the standard. At the end, the fat and other visceral organs of each part of the mice were taken out and weighed, and the viscera/brain ratio for fat in each part of each mouse was calculated. The effect of the drug on the fat was determined by comparing the change in the viscera/brain ratio for fat of different parts of each group of mice.

Data set [4] concerns the target T1, human glucose-dependent insulinotropic polypeptide receptor (GIPR) (human, UniProt P48546 22-466).
T1 sequence (looked up): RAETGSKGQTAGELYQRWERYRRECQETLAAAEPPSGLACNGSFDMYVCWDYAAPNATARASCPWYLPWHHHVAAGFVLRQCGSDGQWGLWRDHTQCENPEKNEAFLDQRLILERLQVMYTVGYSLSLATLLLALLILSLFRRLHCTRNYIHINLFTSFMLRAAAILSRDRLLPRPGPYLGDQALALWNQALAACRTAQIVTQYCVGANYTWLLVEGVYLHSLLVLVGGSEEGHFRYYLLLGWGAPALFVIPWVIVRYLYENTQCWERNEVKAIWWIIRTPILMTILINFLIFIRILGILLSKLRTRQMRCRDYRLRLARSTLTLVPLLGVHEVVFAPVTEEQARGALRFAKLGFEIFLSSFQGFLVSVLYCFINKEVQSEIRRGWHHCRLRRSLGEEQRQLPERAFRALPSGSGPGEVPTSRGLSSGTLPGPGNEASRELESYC
Nature of the data set: cell-based or functional assay.

In data set [5] the target is human glucagon-like peptide-1 receptor (GLP-1R) (human, UniProt P43220 24-463). Description: cell-based or functional assay.

For the molecule `CC[C@H](C)[C@H](NC(=O)[C@H](CCCCN)NC(=O)[C@H](CC(=O)O)NC(=O)[C@H](CCCCNC(=O)COCCOCCNC(=O)COCCOCCNC(=O)CC[C@H](NC(=O)CCCCCCCCCCCCCCCCCCC(=O)O)C(=O)O)NC(=O)[C@H](Cc1ccc(O)cc1)NC(=O)[C@@H](NC(=O)[C@H](CO)NC(=O)[C@H](Cc1ccc(O)cc1)NC(=O)[C@H](CC(=O)O)NC(=O)[C@H](CO)NC(=O)[C@@H](NC(=O)[C@H](Cc1ccccc1)NC(=O)[C@@H](NC(=O)CNC(=O)[C@H](CCC(=O)O)NC(=O)C(C)(C)NC(=O)[C@@H](N)Cc1ccc(O)cc1)[C@@H](C)O)[C@@H](C)O)[C@@H](C)CC)C(=O)N[C@@H](C)C(=O)N[C@@H](C)C(=O)N[C@@H](CCC(N)=O)C(=O)N[C@@H](CCC(=O)O)C(=O)N[C@@H](Cc1ccccc1)C(=O)N[C@H](C(=O)N[C@@H](CC(N)=O)C(=O)N[C@@H](Cc1c[nH]c2ccccc12)C(=O)N[C@@H](CC(C)C)C(=O)N[C@@H](CC(C)C)C(=O)N[C@@H](C)C(=O)NCC(=O)NCC(=O)N1CCC[C@H]1C(=O)N[C@@H](CO)C(=O)N[C@@H](CO)C(=O)NCC(=O)N[C@@H](C)C(=O)N1CCC[C@H]1C(=O)N1CCC[C@H]1C(=O)N1CCC[C@H]1C(=O)N[C@@H](CO)C(N)=O)C(C)C` [Compound 7#] (H-Y[Aib]EGTFTSDYSIYK([AEEA-AEEA-γGlu-C20 diacid])DKIAAQEFVNWLLAGGPSSGAPPPS-NH2), the “Relative content of compounds retained in plasma” value worked out at 100.00% in data set [1] (0 min) and 102.15% in data set [1] (240 min). Further, in data set [2] (10 nmol/kg), the “area under the blood glucose curve reduced compared with placebo” value is given as “more than 60%”. Moreover, the “AUC (area under the blood glucose curve)” value in data set [2] (10 nmol/kg s.c., 0-120 min) worked out at 10.7 ± 1.8 mmol·h/L. In addition, the Blood glucose in data set [2] (10 nmol/kg s.c., 0 min) stood at 4.4 ± 0.8 mmol/L; in data set [2] (10 nmol/kg s.c., 15 min) it was 6.7 ± 0.8 mmol/L; in data set [2] (10 nmol/kg s.c., 30 min) it was 6.2 ± 1.3 mmol/L; in data set [2] (10 nmol/kg s.c., 60 min), 5.7 ± 1.2 mmol/L; in data set [2] (10 nmol/kg s.c., 120 min), 3.8 ± 1.1 mmol/L. Further, the Body weight change in data set [3] (Day 1, mean ± SD) is 0%; in data set [3] (Day 4, mean ± SD), −11.0 ± 1.0%; in data set [3] (Day 7, mean ± SD), −17.6 ± 2.6%; in data set [3] (Day 10, mean ± SD), −22.6 ± 5.9%; in data set [3] (Day 13, mean ± SD), −22.3 ± 6.3%; in data set [3] (Day 16, mean ± SD) it was −22.7 ± 6.9%. For the same molecule, the Body weight change in data set [3] (Day 19, mean ± SD) is −25.9 ± 6.2%; in data set [3] (Day 22, mean ± SD) it was −23.9 ± 5.6%; in data set [3] (Day 25, mean ± SD), −23.9 ± 5.6%; in data set [3] (Day 28, mean ± SD), −25.5 ± 5.3%.

B1: compound 7# (peptide)
peptide: Y[Aib]EGTFTSDYSIYK([AEEA-AEEA-γGlu-Arachidoyl])DKIAAQEFVNWLLAGGPSSGAPPPS-NH2
With B1, in data set [4], the “Activity against human GIPR (EC50 nM); cAMP HTRF, CHO-K1 cells overexpressing hGIP receptor” value is 0.11 nM. Moreover, the “Activity against human GLP-1R (EC50 nM); cAMP HTRF, CHO-K1/GLP-1R/CRE-luc cells” value in data set [5] stood at 0.021 nM.

Source of the values: patent publication US20260014232A1, “Pharmaceutical Composition of GLP-1 and GIP Receptor Dual Agonist and Use Thereof” (Jiangsu Hengrui Pharmaceuticals Co., Ltd., priority 2021, published 2026).
